Test results as given in patent publication US6914045B2, “Glycopeptide antibiotics” (Wyeth Holdings Corporation, priority 2001, dated 2005).
In brackets after ≈: the same amount, converted by molar mass.

What was measured:
Assay in all cases: in vitro antibacterial evaluation, MIC by broth dilution
Format in all cases: cell-based
Escherichia coli = settings: 18 hours at 35° C.
Staphylococcus sp. = system: Staphylococcus sp.
Method: (§1) Methods for in vitro Antibacterial Evaluation (Table 1)
(§2) The minimum inhibitory concentration (MIC), the lowest concentration of the antibiotic which inhibits growth of the test organism, is determined by the broth dilution method using Muller-Hinton II […] (Baltimore Biological Laboratories) following the recommendations of the National Committee for Clinical Laboratory Standards [Methods for dilution antimicrobial susceptibility tests for bacteria that grow aerobically, approved standard M7-A2, National Committee for Clinical Laboratory Standards, Villanova, Pa.].
(§3) An inoculum level of 5×10^5 CFU/mL, and a range of antibiotic concentrations (64-0.06 μg/mL) is used. […] The test organisms include a spectrum of Gram-positive bacteria comprised of Staphylococcus sp., Streptococcus sp. and Enterococcus sp. These organisms include recent clinical isolates that are resistant to methicillin, penicillin and/or vancomycin.

Enterococcus sp. = settings: broth dilution, 18 hours at 35° C.
Method: as §1, §2, §3

Streptococcus sp. = settings: broth dilution, 18 hours at 35° C.
Method: as §1, §2, §3

[1] = broth dilution, 18 hours at 35° C.
[2] = strain ATCC 29213; broth dilution, 18 hours at 35° C.
[3] = strain GC 1131; broth dilution, 18 hours at 35° C.
[4] = strain GC 3051; broth dilution, 18 hours at 35° C.
[5] = strain GC 3053; broth dilution, 18 hours at 35° C.
[6] = strain GC 4541; broth dilution, 18 hours at 35° C.
[7] = strain GC 4542; broth dilution, 18 hours at 35° C.
[8] = strain GC 4544; broth dilution, 18 hours at 35° C.
[9] = strain GC 4545; broth dilution, 18 hours at 35° C.

Structure (SMILES): CC(c1ccccc1)C1NC(=O)CNC(=O)C(CO)NC(=O)C(C(O)C2CNC(=N)N2C2OC(CO)C(O)C3OC(C)(C)OC32)NC(=O)C(C(O)C2CNC(=N)N2)NC(=O)C(Cc2ccc(OC3OC(CO)C(OC4OC(CO)C(O)C(O)C4O)C4OC(C)(C)OC34)cc2)NC1=O (stereo not drawn) [Example 229]
- MIC Escherichia coli (ATCC 25922) (Escherichia coli): >128 mg/L
- MIC Escherichia coli (GC 4559) (Escherichia coli): >128 mg/L
- MIC Escherichia coli (GC 4560) (Escherichia coli): >128 mg/L
- MIC Coagulase Negative Staphylococcus (GC 4547) (Staphylococcus sp.; [1]): >128 mg/L
- MIC Coagulase Negative Staphylococcus (GC 4548) (Staphylococcus sp.; [1]): >128 mg/L
- MIC Coagulase Negative Staphylococcus (GC 4549) (Staphylococcus sp.; [1]): >128 mg/L
- MIC Coagulase Negative Staphylococcus (GC 4551) (Staphylococcus sp.; [1]): >128 mg/L
- MIC Coagulase Negative Staphylococcus (GC 6257) (Staphylococcus sp.; [1]): >128 mg/L
- MIC Staphylococcus aureus-SMITH (GC 4543) (Staphylococcus sp.; [1]): >128 mg/L
- MIC Staphylococcus haemolyticus (GC 4546) (Staphylococcus sp.; [1]): >128 mg/L
- MIC Staphylococcus aureus-SMITH (GC 4543) (Staphylococcus sp.; broth dilution, 18 hours at 35° C.; strain GC 4543): >128 mg/L
- MIC Staphylococcus haemolyticus (GC 4546) (Staphylococcus sp.; broth dilution, 18 hours at 35° C.; strain GC 4546): >128 mg/L
- MIC Coagulase Negative Staphylococcus (GC 4547) (Staphylococcus sp.; broth dilution, 18 hours at 35° C.; strain GC 4547): >128 mg/L
- MIC Coagulase Negative Staphylococcus (GC 4548) (Staphylococcus sp.; broth dilution, 18 hours at 35° C.; strain GC 4548): >128 mg/L
- MIC Coagulase Negative Staphylococcus (GC 4549) (Staphylococcus sp.; broth dilution, 18 hours at 35° C.; strain GC 4549): >128 mg/L
- MIC Coagulase Negative Staphylococcus (GC 4551) (Staphylococcus sp.; broth dilution, 18 hours at 35° C.; strain GC 4551): >128 mg/L
- MIC Coagulase Negative Staphylococcus (GC 6257) (Staphylococcus sp.; broth dilution, 18 hours at 35° C.; strain GC 6257): >128 mg/L
- MIC Staphylococcus aureus (ATCC 29213) (Staphylococcus sp.; [2]): >128 mg/L
- MIC Staphylococcus aureus (GC 1131) (Staphylococcus sp.; [3]): >128 mg/L
- MIC Staphylococcus aureus (GC 3051) (Staphylococcus sp.; [4]): >128 mg/L
- MIC Staphylococcus aureus (GC 3053) (Staphylococcus sp.; [5]): >128 mg/L
- MIC Staphylococcus aureus (GC 4541) (Staphylococcus sp.; [6]): >128 mg/L
- MIC Staphylococcus aureus (GC 4542) (Staphylococcus sp.; [7]): >128 mg/L
- MIC Staphylococcus aureus (GC 4544) (Staphylococcus sp.; [8]): >128 mg/L
- MIC Staphylococcus aureus (GC 4545) (Staphylococcus sp.; [9]): >128 mg/L
- MIC Enterococcus avium (GC 4558) (Enterococcus sp.): 128 mg/L (≈ 93.1 µM)
- MIC Enterococcus faecalis (ATCC 29212) (Enterococcus sp.): >128 mg/L
- MIC Enterococcus faecalis (GC 2242) (Enterococcus sp.): >128 mg/L
- MIC Enterococcus faecalis (GC 2691) (Enterococcus sp.): >128 mg/L
- MIC Enterococcus faecalis (GC 3059) (Enterococcus sp.): >128 mg/L
- MIC Enterococcus faecalis (GC 4552) (Enterococcus sp.): >128 mg/L
- MIC Enterococcus faecalis (GC 4553) (Enterococcus sp.): >128 mg/L
- MIC Enterococcus faecalis (GC 4554) (Enterococcus sp.): >128 mg/L
- MIC Enterococcus faecalis (GC 6189) (Enterococcus sp.): >128 mg/L
- MIC Enterococcus faecium (GC 2243) (Enterococcus sp.): >128 mg/L
- MIC Enterococcus faecium (GC 4556) (Enterococcus sp.): >128 mg/L
- MIC Enterococcus faecium (GC 4557) (Enterococcus sp.): >128 mg/L
- MIC Enterococcus faecalis (ATCC 29212) (Enterococcus sp.; inoculum 5×10^5 CFU/mL, strain ATCC 29212): >128 mg/L
- MIC Enterococcus faecalis (GC 2242) (Enterococcus sp.; inoculum 5×10^5 CFU/mL, strain GC 2242): >128 mg/L
- MIC Enterococcus faecium (GC 2243) (Enterococcus sp.; inoculum 5×10^5 CFU/mL, strain GC 2243): >128 mg/L
- MIC Enterococcus faecalis (GC 2691) (Enterococcus sp.; inoculum 5×10^5 CFU/mL, strain GC 2691): >128 mg/L
- MIC Enterococcus faecalis (GC 3059) (Enterococcus sp.; inoculum 5×10^5 CFU/mL, strain GC 3059): >128 mg/L
- MIC Enterococcus faecalis (GC 4552) (Enterococcus sp.; inoculum 5×10^5 CFU/mL, strain GC 4552): >128 mg/L
- MIC Enterococcus faecalis (GC 4553) (Enterococcus sp.; inoculum 5×10^5 CFU/mL, strain GC 4553): >128 mg/L
- MIC Enterococcus faecalis (GC 4554) (Enterococcus sp.; inoculum 5×10^5 CFU/mL, strain GC 4554): >128 mg/L
- MIC Enterococcus faecium (GC 4556) (Enterococcus sp.; inoculum 5×10^5 CFU/mL, strain GC 4556): >128 mg/L
- MIC Enterococcus faecium (GC 4557) (Enterococcus sp.; inoculum 5×10^5 CFU/mL, strain GC 4557): >128 mg/L
- MIC Enterococcus avium (GC 4558) (Enterococcus sp.; inoculum 5×10^5 CFU/mL, strain GC 4558): 128 mg/L (≈ 93.1 µM)
- MIC Enterococcus faecalis (GC 6189) (Enterococcus sp.; inoculum 5×10^5 CFU/mL, strain GC 6189): >128 mg/L
- MIC Streptococcus agalactiae (GC 4564) (Streptococcus sp.): >128 mg/L
- MIC Streptococcus pneumoniae (ATCC 6301) (Streptococcus sp.): >128 mg/L
- MIC Streptococcus pneumoniae (GC 1894) (Streptococcus sp.): >128 mg/L
- MIC Streptococcus pneumoniae (GC 4565) (Streptococcus sp.): >128 mg/L
- MIC Streptococcus pyogenes (GC 4563) (Streptococcus sp.): >128 mg/L
- MIC Streptococcus pneumoniae (ATCC 6301) (Streptococcus sp.; inoculum 5×10^5 CFU/mL, strain ATCC 6301): >128 mg/L
- MIC Streptococcus pneumoniae (GC 1894) (Streptococcus sp.; inoculum 5×10^5 CFU/mL, strain GC 1894): >128 mg/L
- MIC Streptococcus pyogenes (GC 4563) (Streptococcus sp.; inoculum 5×10^5 CFU/mL, strain GC 4563): >128 mg/L
- MIC Streptococcus agalactiae (GC 4564) (Streptococcus sp.; inoculum 5×10^5 CFU/mL, strain GC 4564): >128 mg/L
- MIC Streptococcus pneumoniae (GC 4565) (Streptococcus sp.; inoculum 5×10^5 CFU/mL, strain GC 4565): >128 mg/L

Structure (SMILES): CC(c1ccccc1)C1NC(=O)CNC(=O)C(CO)NC(=O)C(C(O)C2CNC(=N)N2C2OC(CO)C(O)C(O)C2O)NC(=O)C(C(O)C2CNC(=N)N2)NC(=O)C(Cc2ccc3oc(SCc4ccc(-c5ccccc5)cc4)nc3c2)NC1=O (stereo not drawn) [Example 47]
- MIC Escherichia coli (ATCC 25922) (Escherichia coli; strain ATCC 25922, broth dilution): >64 mg/L
- MIC Escherichia coli (GC 4559) (Escherichia coli; strain GC 4559, broth dilution): >64 mg/L
- MIC Escherichia coli (GC 4560) (Escherichia coli; strain GC 4560, broth dilution): 32 mg/L (≈ 26.8 µM)
- MIC Staphylococcus aureus (ATCC 29213) (Staphylococcus sp.; [2]): 16 mg/L (≈ 13.4 µM)
- MIC Staphylococcus aureus (GC 1131) (Staphylococcus sp.; [3]): 32 mg/L (≈ 26.8 µM)
- MIC Staphylococcus aureus (GC 3051) (Staphylococcus sp.; [4]): 32 mg/L (≈ 26.8 µM)
- MIC Staphylococcus aureus (GC 3053) (Staphylococcus sp.; [5]): 16 mg/L (≈ 13.4 µM)
- MIC Staphylococcus aureus (GC 4541) (Staphylococcus sp.; [6]): 16 mg/L (≈ 13.4 µM)
- MIC Staphylococcus aureus (GC 4542) (Staphylococcus sp.; [7]): 16 mg/L (≈ 13.4 µM)
- MIC Staphylococcus aureus-SMITH (GC 4543) (Staphylococcus sp.; strain GC 4543; broth dilution, 18 hours at 35° C.): 8 mg/L (≈ 6.7 µM)
- MIC Staphylococcus aureus (GC 4544) (Staphylococcus sp.; [8]): 16 mg/L (≈ 13.4 µM)
- MIC Staphylococcus aureus (GC 4545) (Staphylococcus sp.; [9]): 16 mg/L (≈ 13.4 µM)
- MIC Staphylococcus haemolyticus (GC 4546) (Staphylococcus sp.; strain GC 4546; broth dilution, 18 hours at 35° C.): 8 mg/L (≈ 6.7 µM)
- MIC Coagulase Negative Staphylococcus (GC 4547) (Staphylococcus sp.; strain GC 4547; broth dilution, 18 hours at 35° C.): 16 mg/L (≈ 13.4 µM)
- MIC Coagulase Negative Staphylococcus (GC 4548) (Staphylococcus sp.; strain GC 4548; broth dilution, 18 hours at 35° C.): 2 mg/L (≈ 1.67 µM)
- MIC Coagulase Negative Staphylococcus (GC 4549) (Staphylococcus sp.; strain GC 4549; broth dilution, 18 hours at 35° C.): 0.5 mg/L (≈ 0.419 µM)
- MIC Coagulase Negative Staphylococcus (GC 4551) (Staphylococcus sp.; strain GC 4551; broth dilution, 18 hours at 35° C.): 8 mg/L (≈ 6.7 µM)
- MIC Enterococcus faecalis (ATCC 29212) (Enterococcus sp.; strain ATCC 29212): 8 mg/L (≈ 6.7 µM)
- MIC Enterococcus faecalis (GC 2242) (Enterococcus sp.; strain GC 2242): 4 mg/L (≈ 3.35 µM)
- MIC Enterococcus faecium (GC 2243) (Enterococcus sp.; strain GC 2243): 4 mg/L (≈ 3.35 µM)
- MIC Enterococcus faecalis (GC 2691) (Enterococcus sp.; strain GC 2691): 32 mg/L (≈ 26.8 µM)
- MIC Enterococcus faecalis (GC 3059) (Enterococcus sp.; strain GC 3059): 32 mg/L (≈ 26.8 µM)
- MIC Enterococcus faecalis (GC 4552) (Enterococcus sp.; strain GC 4552): 16 mg/L (≈ 13.4 µM)
- MIC Enterococcus faecalis (GC 4553) (Enterococcus sp.; strain GC 4553): 4 mg/L (≈ 3.35 µM)
- MIC Enterococcus faecalis (GC 4554) (Enterococcus sp.; strain GC 4554): 64 mg/L (≈ 53.6 µM)
- MIC Enterococcus faecium (GC 4556) (Enterococcus sp.; strain GC 4556): 8 mg/L (≈ 6.7 µM)
- MIC Enterococcus faecium (GC 4557) (Enterococcus sp.; strain GC 4557): 4 mg/L (≈ 3.35 µM)
- MIC Enterococcus avium (GC 4558) (Enterococcus sp.; strain GC 4558): 2 mg/L (≈ 1.67 µM)
- MIC Enterococcus faecalis (GC 6189) (Enterococcus sp.; strain GC 6189): 32 mg/L (≈ 26.8 µM)
- MIC Streptococcus pneumoniae (ATCC 6301) (Streptococcus sp.; strain ATCC 6301): 4 mg/L (≈ 3.35 µM)
- MIC Streptococcus pneumoniae (GC 1894) (Streptococcus sp.; strain GC 1894): 2 mg/L (≈ 1.67 µM)
- MIC Streptococcus pyogenes (GC 4563) (Streptococcus sp.; strain GC 4563): 1 mg/L (≈ 0.837 µM)
- MIC Streptococcus agalactiae (GC 4564) (Streptococcus sp.; strain GC 4564): 2 mg/L (≈ 1.67 µM)
- MIC Streptococcus pneumoniae (GC 4565) (Streptococcus sp.; strain GC 4565): 8 mg/L (≈ 6.7 µM)
